This note sets out measurements from patent publication US11702408B2, “5-membered aza-heterocyclic containing delta-opioid receptor modulating compounds, methods of using and making the same” (Trevena, Inc., priority 2017, dated 2023).

In one experiment the test system is adult male C57 mice. As to the kind of experiment: Tail suspension test (TST). It is filed as in vivo, mouse. The note with it: TST route sc, p < 0.05 compared to vehicle-treated mice. As to the method:
The experiments were performed using adult male C57 mice (6-10 weeks of age, 20-30 g, Hilltop Lab, PA). The mice were housed in standard rodent cages with stainless steel mesh wire bar lids in groups of 4 with controlled temperature and light cycle (6:00 a.m.-6:00 p.m.). Animals were given free access to food (Harlan Teklad Global 18% protein (Madison, Wis.)) and water during a minimum 2-day habituation period to the laboratory. Animals that were used in the study were handled, housed, and sacrificed (using compressed CO2) in accord with the current NIH guidelines regarding the use and care of laboratory animals, and all applicable local, state, and federal regulations and guidelines. Animals are identified by cage number, and by markings applied to the proximal tip of the tail using a permanent marker. Group sizes (n=8, and therefore 30-50 animals per study) provide reliable estimates of treatment effects, and this species and strain of mouse has been recognized as appropriate for pharmacology studies.
To measure efficacy of the compounds the compounds were tested using a tail suspension test. The tail suspension test is a behavioral test used to evaluate the efficacy of antidepressant drugs in rodents. In the TST, mice (n=8/group) were suspended by the tail with tape approximately 30-50 cm above the lab bench. Mice are positioned such that the base of their tail is perpendicular to the lab bench. Each mouse is given 1 trial that last 6 minutes. The total duration of immobility is calculated as the percentage of time that the mouse is immobile. The duration of immobility is the main parameter measured. This is calculated from the cumulated time during which the animals is absent of initiated movements including passive swaying. When antidepressant drugs are administered, immobility is decreased by a variety of classes of antidepressant drugs. One or more of the compounds show antidepressant activity.

Experiment [1] has as its target T1, delta-opioid receptor (Accession NP_000902) (Homo sapiens, UniProt P41143). As to the kind of experiment: cAMP assay (receptor G-protein mediated response, HTRF). It counts as cell-based. The procedure: (§1) Plasmids encoding delta-opioid receptor (Accession NP_000902), mu-opioid receptor (Accession NP_000905) and kappa-opioid receptor (Accession Assession NP_000903) were generated in the pCMV-Prolink backbone and transfected into an EA-arrestin parental human embryonic kidney (HEK-293) cell line from DiscoveRx Corporation. Clonal stable lines were subsequently selected under G418.
Cell lines were grown adherently in Minimum Essential Media (Cellgro cat #10-010-CM) containing 10% fetal bovine serum (Hyclone cat #SH30071.03), 4 mM glutamine (Cellgro cat #25-005-CI), 150 ug/ml hygromycin B (Cellgro cat #30-240-CR), 150 ug/ml G418 (Cellgro cat #30-234-CR), and 50 u/50 ug penicillin/streptomycin (Lonza cat #17-603E). […]
Receptor G-protein mediated responses were determined by measuring changes in intracellular cAMP using CisBio HTRF cAMP HiRange kit (cat #62AM6PEJ) based on time-resolved fluorescence resonance energy transfer (TR-FRET). […] Following a 30 minute incubation at 37° C. the components of the cAMP HiRange kit were added as directed and the plates were read after 1 hour on a BMG PheraStar plate reader. Responses were measured as the ratio of fluorescence at 665 nm/620 nm per manufacturer's instructions.
(cAMP levels reflect the balance of adenylyl cyclase and phosphodiesterase activity.)

In experiment [2] the target is T1, delta-opioid receptor (Accession NP_000902). Nature of the experiment: β-arrestin recruitment assay (DiscoveRx PathHunter). It counts as cell-based. The note with it: β-arrestin pathway, HEK-293 stable line. The procedure:
as §1
Cell lines were grown adherently in Minimum Essential Media (Cellgro cat #10-010-CM) containing 10% fetal bovine serum (Hyclone cat #SH30071.03), 4 mM glutamine (Cellgro cat #25-005-CI), 150 ug/ml hygromycin B (Cellgro cat #30-240-CR), 150 ug/ml G418 (Cellgro cat #30-234-CR), and 50 u/50 ug penicillin/streptomycin (Lonza cat #17-603E). Prior to the assay cells were removed from the flasks with CellStripper (Cellgro cat #25-056-CI), repeatedly pipetted to disperse cells, and spun at low speed for 5 min at room temperature. Cells were then resuspended at 250,000 cells/ml in growth media and plated at 5,000 cells/well in 384 well plates (Greiner part #784080). […]
Receptor mediated beta-arrestin recruitment was determined using the DiscoveRx β-arrestin PathHunter Detection kit (cat #93-0001). […] Following a 60 minute incubation at 37° C. the components of the DiscoveRx β-arrestin PathHunter Detection kit were added as directed and the plates were read after 1 hour on a BMG PheraStar plate reader.

T1 sequence (P41143 whole entry): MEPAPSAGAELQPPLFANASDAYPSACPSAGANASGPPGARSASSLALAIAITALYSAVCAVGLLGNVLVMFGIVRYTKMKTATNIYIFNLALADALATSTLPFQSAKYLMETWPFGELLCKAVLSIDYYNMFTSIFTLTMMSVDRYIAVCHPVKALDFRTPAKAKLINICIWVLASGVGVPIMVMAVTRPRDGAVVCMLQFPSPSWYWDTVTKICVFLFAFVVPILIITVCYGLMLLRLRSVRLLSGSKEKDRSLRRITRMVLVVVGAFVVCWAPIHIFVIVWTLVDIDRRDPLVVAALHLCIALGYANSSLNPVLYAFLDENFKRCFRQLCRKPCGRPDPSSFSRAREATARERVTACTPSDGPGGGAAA

Consider `CCCN1C[C@H](COc2ccc3c(c2)C(=O)NC3)[C@@H](c2ccc(F)cc2)C1` [Compound A0045], for which the “Active TST Dose” value in the experiment on adult male C57 mice was no more than 10 mg/kg.

As to `CCCN1C[C@H](COc2ccc3c(c2)C(=O)NC3)[C@H](c2ccc(F)cc2)C1` [Compound A0073], in the experiment on adult male C57 mice, the “Active TST Dose” value was no more than 30 mg/kg.

`CCCN1C[C@@H](COc2ccc3c(c2)C(=O)NC3)[C@H](c2ccc(F)cc2)C1` [Compound A0090]: the “Active TST Dose” value in the experiment on adult male C57 mice is given as no more than 10 mg/kg.

With `CCCN1C[C@H](COc2ccc3c(c2)C(=O)NC3)[C@H](c2ccccc2)C1` [Compound A0095], in the experiment on adult male C57 mice, the “Active TST Dose” value was no more than 10 mg/kg.

Regarding `O=C1NCc2ccc(OC[C@@H]3CN(CC4CC4)C[C@H]3c3ccc(F)cc3)cc21` [Compound A0105], the “Active TST Dose” value in the experiment on adult male C57 mice is no more than 10 mg/kg.

Take `CCCN1C[C@H](COc2ccc3c(c2)C(=O)NC3)[C@H](c2ccc(F)c(F)c2)C1` [Compound A0108]: the “Active TST Dose” value in the experiment on adult male C57 mice is given as no more than 10 mg/kg.

In the case of `CCCN1C[C@H](COc2ccc3c(c2)C(=O)NC3)[C@H](c2ccc(OCCN3C(=O)CCC3=O)cc2)C1` [Compound A0113], the “Active TST Dose” value with adult male C57 mice is no more than 10 mg/kg.

As to `COc1ccc([C@@H]2CN(CC3CC3)C[C@@H]2COc2ccc3c(c2)C(=O)NC3)cc1F` [Compound A0116], the “Active TST Dose” value with adult male C57 mice (po) is given as no more than 30 mg/kg.

As to `CCCN1C[C@@]2(COc3ccc4c(c3)C(=O)NC4)C[C@@]2(c2cccc(F)c2)C1` [Compound A0128], the “Active TST Dose” value with adult male C57 mice (po) is listed as no more than 30 mg/kg.

As for `Fc1ccc([C@@H]2CCNC[C@H]2COc2ccc3c(c2)OCO3)cc1` [Paroxetine, paroxetine], the “hDOR G Span” value in experiment [1] (G-protein (cAMP) pathway, HEK-293 stable line) is less than 100. The “selectivity for the delta-opioid receptor” value in experiment [1] (versus mu- and kappa-opioid receptor) was “non-selective agonist”. In experiment [2], the “hDOR B Span” value is reported as less than 100. Also, in experiment [2] (read-out: hDOR B pEC50 (converted)), the EC50 is greater than 1000 nM.
